Reference: US8728980B2, “Peptide microarray and method of use” (The Regents of the University of California, priority 2011, dated 2014)

Columns and labels:
Abl1 SH3 domain = Abl1 SH3 domain (Homo sapiens, UniProt P00519); assay: Peptide microarray binding of GST-Abl SH3 fusion protein (Cy3 fluorescence); conditions: peptides printed at 1 mg/ml in triplicates, GST-Abl SH3 5 μM
Procedure: The GST-tagged Abl SH3 domain fusion protein was purified as previously described (12). Protein concentration was determined using the Bradford Assay (Bio-Rad). The purity of the fusion protein was checked by electrophoresis on SDS-PAGE gel and coomassie blue staining. The fusion protein was also subjected to electrophoresis on SDS-PAGE gel, followed by Western blot using a horseradish peroxidase-conjugated anti-GST antibody (Santa Cruz Biotechnology) and the SuperSignal West chemiluminescent substrate (Pierce).
All peptides were synthesized by Sigma-Aldrich. The peptides were printed onto glass slides in triplicates by ArrayIt Corporation. […]
The peptide microarray was processed by the InnoScan 710 laser scanner (ArrayIt Corporation). Cy-3 fluorescence was detected using the 532 nm laser at 3 um resolution. The resulted microarray image was analyzed by the microarray image process software Mapix2.8.2 (ArrayIt Corporation). The fluorescent intensity of a microarray spot was defined as its own intensity minus the background intensity around it, as determined from the scanned image.
To print peptide microarrays, method of immobilizing the peptides on the glass surface, as well as the amount of peptide printed, needed to decide. […] Binding of GST-Abl SH3 to peptides generated a Cy3 fluorescent signal that was recorded on a laser scanner. […]

Polycomb = target: T1, Polycomb (Drosophila melanogaster, UniProt P26017); conditions: from reference 2; read-out: Experimental dissociation constant; cited from earlier work
T1 sequence (P26017 1-390): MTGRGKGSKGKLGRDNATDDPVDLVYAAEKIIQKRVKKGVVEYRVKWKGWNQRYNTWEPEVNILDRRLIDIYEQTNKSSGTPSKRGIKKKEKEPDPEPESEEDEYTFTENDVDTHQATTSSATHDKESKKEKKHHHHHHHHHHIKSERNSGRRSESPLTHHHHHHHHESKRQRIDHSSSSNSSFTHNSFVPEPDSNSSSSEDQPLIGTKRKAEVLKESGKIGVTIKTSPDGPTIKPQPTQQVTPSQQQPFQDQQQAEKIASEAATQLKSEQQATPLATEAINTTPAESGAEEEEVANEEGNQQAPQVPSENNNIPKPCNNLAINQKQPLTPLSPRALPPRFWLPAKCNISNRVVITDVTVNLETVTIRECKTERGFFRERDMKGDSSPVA

[1] = target: T2, Polycomb protein chromodomain (Drosophila melanogaster, UniProt P26017); assay: Peptide microarray binding of GST-tagged Polycomb chromodomain; parameters: dose or concentration left out as unconfirmed; conditions: Binder if at least two of three spots pass p-value cutoff 0.001 from background
T2 construct: The chromodomain (a.a. 1-90) of Polycomb protein was expressed as GST-tagged fusion protein; made in house
T2 sequence (P26017 1-90): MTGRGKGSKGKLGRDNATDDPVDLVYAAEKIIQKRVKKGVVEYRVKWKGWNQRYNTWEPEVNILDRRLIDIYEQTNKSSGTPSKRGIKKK
Description: There are a total of 46 histone peptide sequences (9 a.a. long) with a single lysine-trimethylation site which are conserved between the human and fruit fly H2, H3 and H4 proteins (Table II). These were screened for Polycomb protein chromodomain binding by peptide microarray. Each peptide sequence was screened as triplets, and the fluorescence intensity was quantified with background subtraction individually for each spot from the microarray images by ImageJ^9 and the whole data set was fit to a mixed Gaussian distribution model (FIG. 8, Table III).
Twelve out of the 46 sequences were identified as positive binders under these criteria. Ten of these microarray-identified binders also yielded high mutation matrix score in an independent prediction (Table IV).
The chromodomain (a.a. 1-90) of Polycomb protein was expressed as GST-tagged fusion protein and purified as described in [65]. The purity of the protein was examined by SDS-PAGE electrophoresis followed by both Coomassie staining and western blot using an Anti-GST-HRP conjugate (Santa Cruz Biotechnology). The concentration of purified protein was determined by BCA assay (Amresco). A total of 46 trimethylated histone peptides were synthesized by Sigma Aldrich (desalted, mass spectrometry checked). The peptides were then printed as triplets onto glass slides (ArrayIt), together with a Cy3 marker and an anti-GST (mouse monoclonal) antibody (Thermo) as references.
The peptide microarray was rinsed with TBST buffer (25 mM Tris, 125 mM NaCl, 0.05% Tween-20, pH 8) followed by blocking with 5% non-fat milk in TBST (room temperature 1 hour or 4° C. overnight). The slide was then incubated at 4° C. with Polycomb-GST fusion protein at a final concentration of […] in 5% non-fat milk/TBST for 6 hours. After washing three times for 10 minutes each with TBST, the slide was incubated with an anti-GST mouse monoclonal IgG antibody (Thermo) at a final concentration of 1 μg/mL in 5% non-fat milk/TBST and shaken gently for 1 hour at room temperature. A secondary anti-mouse IgG Dylight-488 conjugated antibody (Thermo) was added to a final concentration of 0.1 μg/mL after three more cycles of 10 minutes washing with TBST. The slide was shaken for 1 hr at room temperature and washed three times with TBST.
The dried microarray slides were scanned using a Hamamatsu NanoZoomer 2.0HT Slide Scanning System (Neuroscience Light Microscopy Facility, UCSD). Data quantification were processed using the microarray processing software ImageJ^9, where the fluorescent intensity of a microarray spot was defined as its own intensity minus the background intensity around it on the scanned image.

Abl1 SH3 domain, sequence (P00519 61-121 limits assumed): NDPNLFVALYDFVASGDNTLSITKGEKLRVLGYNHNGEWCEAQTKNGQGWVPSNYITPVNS

| Array Verification [1] | Sequence | Average fluorescence intensity (high printing concentration) (Abl1 SH3 domain) | Kd (Polycomb) |
| --- | --- | --- | --- |
| – | PPDPPPPPLP [10-residue peptide of SHIP2_HUMAN 1050-1059] | 58833 | – |
| Binder | LATKAARKS [template histone H3 peptide L20 to S28 with trimethylated Lys27, reference compound] | – | 5 ± 1 µM |
